Experiment [1] deals with HCT116 homozygous MTAP knockout cells. Kind of experiment: Proliferation assay (CellTiter-Glo, 10 days) in HCT116 homozygous MTAP knockout cells. The experiment is classed as cell-based. The note with it: CellTiter-Glo after 10 days of treatment, read-out: Proliferation IC50 (nM) HCT116 MTAP_KO. In short, it runs like this:
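CellTiter-Glo viability read on day 11 gives a 10-day IC50. Dosing began one day after seeding, with a 1:10 split into fresh drug-containing medium on day 6. Cells are HCT116 lacking both MTAP alleles via CRISPR/Cas9, run alongside the parental line.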
(Cellular ATP, detected with luciferase, serves as a proxy for viable cell number.)

The test system of experiment [2] is PRMT5-dependent Symmetric Di-methyl Arginine signal in HCT116 homozygous MTAP Knockout cells. Kind of experiment: SYM11 In-Cell Western in HCT116 homozygous MTAP knockout cells. The experiment is classed as cell-based. The note with it: 4 days of treatment, SYM11/DRAQ5 ratio as percent of DMSO control, read-out: In-cell-Western (SYM11) IC50 (nM) HCT116 MTAP_KO. How it is done: HCT116 cells were genetically engineered to knock out the function of both MTAP alleles using a CRISPR/Cas9 system and an sgRNA targeting the MTAP gene. Following Cas9/MTAP sgRNA transduction, clones were screened to confirm that each allele of the MTAP gene had been inactivated (i.e., homozygous MTAP knock out) creating an MTAP-deficient cell.
Control samples were analyzed in parallel.
Briefly, on Day 0, 2,000 HCT116 parental or HCT116 homozygous MTAP knockout cells were seeded in 96 well plates in McCoy's 5A supplemented with 10% fetal bovine serum and pen/strep and the cells were incubated overnight at 37° C. plus 5% CO2. The following day, cells were treated with DMSO vehicle control or a dose response of PRMT5 inhibitors, and incubated at 37° C. plus 5% CO^2 for four days.
After 4 days of treatment, the cells were fixed by adding 50 μl of 4% paraformaldehyde solution to each well and the cells were incubated for 20 min at room temperature. The paraformaldehyde solution was removed, 150 μl of ice-cold methanol was added and the plate was placed −20° C. for 10 minutes. The methanol was removed, 150 μl of Odyssey Blocking buffer+0.05% Tween20 was added and the plate was incubated at room temperature with shaking for one hour.
The primary SYM11 antibody solution was removed by aspiration and the wells were washed three consecutive times with phosphate buffered saline containing 0.1% Tween-20 (PBST).
The secondary antibody solution was removed by aspiration and the wells were washed three consecutive times with PBST.
The SYM11 signal and the DRAQ5 signal were quantified using a Li-Cor Odyssey machine reading at […], respectively. The SYM11/DRAQ5 ratio was used to calculate the inhibition of Symmetric Dimethyl Arginine as percent of DMSO control.

In a further experiment the target is T1, PRMT5/MEP50 complex (Homo sapiens, UniProt O14744).
T1 construct: purchased Reaction Biology Corporation
T1 sequence (O14744 2-637 limits assumed): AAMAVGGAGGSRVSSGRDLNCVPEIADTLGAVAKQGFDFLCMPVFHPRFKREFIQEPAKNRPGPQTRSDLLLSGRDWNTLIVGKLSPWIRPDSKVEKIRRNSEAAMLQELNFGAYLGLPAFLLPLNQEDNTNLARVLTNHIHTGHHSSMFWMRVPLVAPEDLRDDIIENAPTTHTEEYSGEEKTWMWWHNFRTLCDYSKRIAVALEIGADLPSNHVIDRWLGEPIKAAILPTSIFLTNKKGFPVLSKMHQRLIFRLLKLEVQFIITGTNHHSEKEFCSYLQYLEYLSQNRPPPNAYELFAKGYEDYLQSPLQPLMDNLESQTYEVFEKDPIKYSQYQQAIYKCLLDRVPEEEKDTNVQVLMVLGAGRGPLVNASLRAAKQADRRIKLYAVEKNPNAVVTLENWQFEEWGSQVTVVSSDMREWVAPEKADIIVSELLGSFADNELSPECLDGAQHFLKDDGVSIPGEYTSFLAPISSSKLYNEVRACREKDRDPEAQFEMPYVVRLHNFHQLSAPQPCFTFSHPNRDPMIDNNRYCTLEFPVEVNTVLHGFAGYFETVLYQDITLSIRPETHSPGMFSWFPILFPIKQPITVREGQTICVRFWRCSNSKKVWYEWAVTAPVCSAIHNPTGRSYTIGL
T1 sequence (Q9BQA1 2-342 partner limits assumed): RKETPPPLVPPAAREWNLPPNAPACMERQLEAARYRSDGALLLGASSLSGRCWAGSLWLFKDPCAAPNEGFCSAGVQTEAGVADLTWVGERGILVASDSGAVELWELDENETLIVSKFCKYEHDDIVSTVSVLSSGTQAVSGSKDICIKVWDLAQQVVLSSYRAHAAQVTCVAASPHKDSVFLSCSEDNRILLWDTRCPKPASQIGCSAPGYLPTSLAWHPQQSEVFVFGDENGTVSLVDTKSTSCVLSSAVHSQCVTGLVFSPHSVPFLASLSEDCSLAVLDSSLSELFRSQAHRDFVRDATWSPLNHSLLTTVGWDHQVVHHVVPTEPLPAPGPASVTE
The experiment is described as follows: PRMT5:MEP50 HotSpot Assay (full-length histone H2A substrate, plus and minus MTA). The conditions noted are these: IC50 + 2 μM MTA, in the presence of 2 μM MTA. The experiment is classed as biochemical. In short, it runs like this: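 Tritiated product on full-length recombinant H2A was counted by scintillation after the stopped reaction was captured on filter paper. Substrate is histone H2A; conditions include plus and minus MTA.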

In patent publication US20240208912A1 (Mirati Therapeutics, Inc., priority 2021, published 2024) one finds IC50 data, which are given here for nine compounds.

pIC50: −log10 of the molar value. Like-named read-outs stand apart in the source and are kept apart here.

For orientation: pIC50 means the negative decadic logarithm of the IC50, by convention in mol/L. `Cn1ncc(-c2ccc3c(=O)[nH]nc(CN)c3c2)c1-c1c(C#N)cc2ccccc2c1Cl` (single isomer, unassigned) [Example 16-6]: the IC50 in experiment [1] turned out to be 64 nM; in experiment [2] it was 20 nM. The pIC50 at PRMT5/MEP50 complex was 7.55.
The matching figures for `Cc1cc(-c2cnn(C)c2-c2c(F)ccc(OC3CC3)c2C#N)cc2c(CN)n[nH]c(=O)c12` (atropisomer, axis not shown; (M)) [Example 16-48, (M)-2-[4-[4-(aminomethyl)-8-methyl-1-oxo-2H-phthalazin-6-yl]-2-methyl-pyrazol-3-yl]-6-(cyclopropoxy)-3-fluoro-benzonitrile]: 19 nM, 10 nM and 6.89.
For `Cc1cc(-c2cnn(C)c2-c2c(F)c(Cl)cc(OC3CC3)c2C#N)cc2c(CN)n[nH]c(=O)c12` (single isomer, unassigned) [Example 16-45, (P)-2-[4-[4-(aminomethyl)-8-methyl-1-oxo-2H-phthalazin-6-yl]-2-methyl-pyrazol-3-yl]-4-chloro-6-(cyclopropoxy)-3-fluoro-benzonitrile], the IC50 in experiment [1] turned out to be 798 nM; in experiment [2] it was 282 nM. Moreover, the pIC50 at PRMT5/MEP50 complex was 5.71.
The matching figures for `Cc1cc(OC2CC2)c(C#N)c(-c2c(-c3cc(C)c4c(=O)[nH]nc(CN)c4c3)cnn2C)c1F` (single isomer, unassigned) [Example 16-43, (P)-2-(4-(4-(aminomethyl)-8-methyl-1-oxo-1,2-dihydrophthalazin-6-yl)-1-methyl-1H-pyrazol-5-yl)-6-cyclopropoxy-3-fluoro-4-methylbenzonitrile]: 1300 nM, 656 nM and 5.70.
Turning to `Cc1cc(-c2cnn(C)c2-c2c(C#N)cc3ccccc3c2Cl)cc2c(CN)n[nH]c(=O)c12` (single isomer, unassigned) [Example 16-52, (M)-3-[4-[4-(aminomethyl)-8-methyl-1-oxo-2H-phthalazin-6-yl]-2-methyl-pyrazol-3-yl]-4-chloro-naphthalene-2-carbonitrile], the IC50 in experiment [1] came out at 19 nM; in experiment [2], 13 nM. For the same compound, on PRMT5/MEP50 complex, the pIC50 is 7.54.
In the same order, the values of `Cc1cc(-c2cnn(C)c2-c2c(F)cc3ccccc3c2C#N)cc2c(CN)n[nH]c(=O)c12` (single isomer, unassigned) [Example 16-16, (M)-2-[4-[4-(aminomethyl)-8-methyl-1-oxo-2H-phthalazin-6-yl]-2-methyl-pyrazol-3-yl]-3-fluoro-naphthalene-1-carbonitrile] are 6 nM, 6 nM and 7.87.
Turning to `Cn1ncc(-c2ccc3c(=O)[nH]nc(CN)c3c2)c1-c1c(C#N)sc2ccccc12` [Example 4-266, 3-[4-[4-(aminomethyl)-1-oxo-2H-phthalazin-6-yl]-2-methyl-pyrazol-3-yl]benzothiophene-2-carbonitrile], the IC50 in experiment [1] (Homo sapiens, HCT-116, 240 h) turned out to be 312 nM; in experiment [2] (Homo sapiens, HCT-116, 96 h), 324 nM. Besides, on PRMT5/MEP50 complex, the pIC50 is 6.29.
Take `Cn1ncc(-c2ccc3c(=O)[nH]nc(CN)c3c2)c1-c1c(F)c(Cl)c2ccccc2c1C#N` (single isomer, unassigned) [Example 16-9, (P)-2-[4-[4-(aminomethyl)-1-oxo-2H-phthalazin-6-yl]-2-methyl-pyrazol-3-yl]-4-chloro-3-fluoro-naphthalene-1-carbonitrile]: the figures for the IC50 in experiment [1] and in experiment [2] were 307 nM and 93 nM, respectively. For the same compound, the pIC50 on PRMT5/MEP50 complex is 6.61.
With `Cn1ncc(-c2ccc3c(=O)[nH]nc(CN)c3c2F)c1-c1ccc2ccccc2c1C#N` [Example 17-2, 2-[4-[4-(aminomethyl)-5-fluoro-1-oxo-2H-phthalazin-6-yl]-2-methyl-pyrazol-3-yl]naphthalene-1-carbonitrile], the IC50 in experiment [1] (Homo sapiens, HCT-116, 240 h) was 432 nM; in experiment [2] (Homo sapiens, HCT-116, 96 h) it was 80 nM.
